Patent US9446039B2, “Aminoheteroaryl compounds as MTH1 inhibitors” (CEMM—FORSCHUNGSZENTRUM FÜR MOLEKULARE MEDIZIN GMBH, priority 2012, dated 2016)

How the values were obtained:
Type in all cases: binding
[1] = molecular target: T1, SW480 colon carcinoma cells lysate proteins (Homo sapiens, UniProt P14174); settings: PreyGene MIF
T1 sequence (P14174 1-115): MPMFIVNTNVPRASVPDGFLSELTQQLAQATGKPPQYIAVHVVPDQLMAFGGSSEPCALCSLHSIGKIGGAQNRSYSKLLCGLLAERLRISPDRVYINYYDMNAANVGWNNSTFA

[2] = molecular target: T2, SW480 colon carcinoma cells lysate proteins (Homo sapiens, UniProt P10599); settings: PreyGene TXN
T2 sequence (P10599 1-105): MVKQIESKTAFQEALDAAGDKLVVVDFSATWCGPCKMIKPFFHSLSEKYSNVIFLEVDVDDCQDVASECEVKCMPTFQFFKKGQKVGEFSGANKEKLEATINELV

[3] = molecular target: SW480 colon carcinoma cells lysate proteins (Homo sapiens, UniProt Q71UM5); settings: PreyGene RPS27L; SW480 cells
[4] = molecular target: T3, SW480 colon carcinoma cells lysate proteins (Homo sapiens, UniProt Q15785); settings: PreyGene TOMM34
T3 sequence (Q15785 1-309): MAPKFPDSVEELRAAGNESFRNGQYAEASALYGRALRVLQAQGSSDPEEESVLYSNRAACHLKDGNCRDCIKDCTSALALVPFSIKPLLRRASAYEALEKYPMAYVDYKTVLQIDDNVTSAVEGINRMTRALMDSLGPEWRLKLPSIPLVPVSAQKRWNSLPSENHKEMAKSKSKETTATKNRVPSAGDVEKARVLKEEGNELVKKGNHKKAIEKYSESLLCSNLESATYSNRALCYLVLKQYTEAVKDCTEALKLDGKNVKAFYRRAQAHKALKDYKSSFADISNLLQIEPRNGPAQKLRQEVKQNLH

[5] = molecular target: T4, SW480 colon carcinoma cells lysate proteins (Homo sapiens, UniProt P49458); settings: PreyGene SRP9
T4 sequence (P49458 1-86): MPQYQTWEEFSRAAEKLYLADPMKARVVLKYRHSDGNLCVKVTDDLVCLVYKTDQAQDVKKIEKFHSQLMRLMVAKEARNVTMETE

[6] = molecular target: SW480 colon carcinoma cells lysate proteins (Homo sapiens, UniProt P67809); settings: PreyGene YBX1; SW480 cells
Chain of SW480 colon carcinoma cells lysate proteins (Homo sapiens, UniProt P67809) (P67809 whole entry): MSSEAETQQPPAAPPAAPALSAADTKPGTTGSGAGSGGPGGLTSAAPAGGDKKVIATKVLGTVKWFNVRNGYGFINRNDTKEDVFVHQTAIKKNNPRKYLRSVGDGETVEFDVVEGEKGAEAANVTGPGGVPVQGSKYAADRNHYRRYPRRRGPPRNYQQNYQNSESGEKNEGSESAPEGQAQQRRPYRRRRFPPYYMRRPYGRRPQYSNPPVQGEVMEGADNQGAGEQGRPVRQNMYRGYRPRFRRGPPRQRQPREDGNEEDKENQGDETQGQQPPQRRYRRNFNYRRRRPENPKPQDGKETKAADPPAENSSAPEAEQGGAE

[7] = molecular target: SW480 colon carcinoma cells lysate proteins (Homo sapiens, UniProt Q92616); settings: PreyGene GCN1L1; SW480 cells
Chain of SW480 colon carcinoma cells lysate proteins (Homo sapiens, UniProt Q92616) (Q92616 whole entry): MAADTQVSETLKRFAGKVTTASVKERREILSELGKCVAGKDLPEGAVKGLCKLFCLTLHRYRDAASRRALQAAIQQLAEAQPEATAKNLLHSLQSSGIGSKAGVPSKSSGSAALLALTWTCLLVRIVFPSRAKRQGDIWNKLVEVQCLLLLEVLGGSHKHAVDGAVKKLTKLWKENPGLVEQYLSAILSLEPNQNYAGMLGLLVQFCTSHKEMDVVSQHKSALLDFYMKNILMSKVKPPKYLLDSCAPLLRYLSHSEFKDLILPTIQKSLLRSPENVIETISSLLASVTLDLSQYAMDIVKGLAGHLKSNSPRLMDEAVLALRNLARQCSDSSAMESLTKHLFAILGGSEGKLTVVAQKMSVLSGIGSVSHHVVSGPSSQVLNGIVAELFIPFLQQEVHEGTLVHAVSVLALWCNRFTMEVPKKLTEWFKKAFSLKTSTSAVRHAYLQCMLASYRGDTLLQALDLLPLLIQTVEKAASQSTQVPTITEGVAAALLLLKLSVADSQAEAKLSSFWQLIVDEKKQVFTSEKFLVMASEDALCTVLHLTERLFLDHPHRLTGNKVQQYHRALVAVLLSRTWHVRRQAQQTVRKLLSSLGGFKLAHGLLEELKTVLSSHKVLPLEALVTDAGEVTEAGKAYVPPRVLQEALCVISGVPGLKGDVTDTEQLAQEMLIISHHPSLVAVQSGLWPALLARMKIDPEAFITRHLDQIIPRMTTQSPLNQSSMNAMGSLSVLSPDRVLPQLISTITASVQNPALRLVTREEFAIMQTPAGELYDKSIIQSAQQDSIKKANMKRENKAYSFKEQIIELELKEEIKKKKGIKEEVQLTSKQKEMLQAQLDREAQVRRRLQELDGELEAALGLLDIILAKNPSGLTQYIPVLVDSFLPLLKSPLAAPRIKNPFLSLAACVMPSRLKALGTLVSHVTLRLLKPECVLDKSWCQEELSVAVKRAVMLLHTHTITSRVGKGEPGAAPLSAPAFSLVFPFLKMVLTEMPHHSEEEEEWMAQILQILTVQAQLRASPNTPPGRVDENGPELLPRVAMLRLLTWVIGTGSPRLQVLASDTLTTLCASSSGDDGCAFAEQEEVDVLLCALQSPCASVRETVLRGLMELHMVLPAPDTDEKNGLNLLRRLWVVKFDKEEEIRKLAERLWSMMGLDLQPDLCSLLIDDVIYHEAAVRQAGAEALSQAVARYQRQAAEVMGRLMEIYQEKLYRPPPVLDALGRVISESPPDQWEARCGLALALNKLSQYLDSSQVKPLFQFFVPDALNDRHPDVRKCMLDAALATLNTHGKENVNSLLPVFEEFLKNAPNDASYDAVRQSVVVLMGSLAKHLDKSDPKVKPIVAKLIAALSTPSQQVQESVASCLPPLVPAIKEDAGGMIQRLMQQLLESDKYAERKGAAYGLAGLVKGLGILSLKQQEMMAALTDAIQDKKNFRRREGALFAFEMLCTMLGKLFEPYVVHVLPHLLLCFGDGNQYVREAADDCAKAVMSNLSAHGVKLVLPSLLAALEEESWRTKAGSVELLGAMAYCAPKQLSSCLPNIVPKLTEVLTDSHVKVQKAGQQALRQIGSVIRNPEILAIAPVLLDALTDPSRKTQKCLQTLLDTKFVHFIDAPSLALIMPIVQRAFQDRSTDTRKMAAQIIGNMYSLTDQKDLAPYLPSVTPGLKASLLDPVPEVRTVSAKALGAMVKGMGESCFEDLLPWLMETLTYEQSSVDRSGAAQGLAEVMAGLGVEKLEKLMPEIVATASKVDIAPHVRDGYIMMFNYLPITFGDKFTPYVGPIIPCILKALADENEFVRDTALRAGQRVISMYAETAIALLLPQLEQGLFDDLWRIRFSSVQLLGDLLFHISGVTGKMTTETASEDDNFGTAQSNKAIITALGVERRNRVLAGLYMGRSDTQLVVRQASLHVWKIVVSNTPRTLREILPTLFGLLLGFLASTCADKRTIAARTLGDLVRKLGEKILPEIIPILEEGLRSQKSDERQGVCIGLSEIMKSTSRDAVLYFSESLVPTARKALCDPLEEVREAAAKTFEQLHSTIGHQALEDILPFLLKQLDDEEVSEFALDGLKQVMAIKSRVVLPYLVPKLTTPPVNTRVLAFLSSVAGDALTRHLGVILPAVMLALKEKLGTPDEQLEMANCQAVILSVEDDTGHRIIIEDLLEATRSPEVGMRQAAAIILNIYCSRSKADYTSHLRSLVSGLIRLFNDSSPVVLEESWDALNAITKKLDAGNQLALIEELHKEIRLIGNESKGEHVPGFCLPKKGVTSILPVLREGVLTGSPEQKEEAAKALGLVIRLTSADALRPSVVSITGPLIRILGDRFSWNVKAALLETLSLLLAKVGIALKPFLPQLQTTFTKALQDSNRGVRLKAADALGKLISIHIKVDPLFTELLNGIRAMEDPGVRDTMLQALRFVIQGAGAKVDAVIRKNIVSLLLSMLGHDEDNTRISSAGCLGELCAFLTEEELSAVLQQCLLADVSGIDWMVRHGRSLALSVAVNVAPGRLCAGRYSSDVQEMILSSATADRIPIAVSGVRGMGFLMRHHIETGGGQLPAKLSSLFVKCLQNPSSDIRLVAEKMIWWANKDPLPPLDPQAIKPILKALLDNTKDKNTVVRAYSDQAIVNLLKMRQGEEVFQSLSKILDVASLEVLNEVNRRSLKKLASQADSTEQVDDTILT

[8] = molecular target: SW480 colon carcinoma cells lysate proteins (Homo sapiens, UniProt Q09666); settings: PreyGene AHNAK; SW480 cells
[9] = molecular target: SW480 colon carcinoma cells lysate proteins (Homo sapiens, UniProt P14625); settings: PreyGene HSP90B1
Chain of SW480 colon carcinoma cells lysate proteins (Homo sapiens, UniProt P14625) (P14625 22-803): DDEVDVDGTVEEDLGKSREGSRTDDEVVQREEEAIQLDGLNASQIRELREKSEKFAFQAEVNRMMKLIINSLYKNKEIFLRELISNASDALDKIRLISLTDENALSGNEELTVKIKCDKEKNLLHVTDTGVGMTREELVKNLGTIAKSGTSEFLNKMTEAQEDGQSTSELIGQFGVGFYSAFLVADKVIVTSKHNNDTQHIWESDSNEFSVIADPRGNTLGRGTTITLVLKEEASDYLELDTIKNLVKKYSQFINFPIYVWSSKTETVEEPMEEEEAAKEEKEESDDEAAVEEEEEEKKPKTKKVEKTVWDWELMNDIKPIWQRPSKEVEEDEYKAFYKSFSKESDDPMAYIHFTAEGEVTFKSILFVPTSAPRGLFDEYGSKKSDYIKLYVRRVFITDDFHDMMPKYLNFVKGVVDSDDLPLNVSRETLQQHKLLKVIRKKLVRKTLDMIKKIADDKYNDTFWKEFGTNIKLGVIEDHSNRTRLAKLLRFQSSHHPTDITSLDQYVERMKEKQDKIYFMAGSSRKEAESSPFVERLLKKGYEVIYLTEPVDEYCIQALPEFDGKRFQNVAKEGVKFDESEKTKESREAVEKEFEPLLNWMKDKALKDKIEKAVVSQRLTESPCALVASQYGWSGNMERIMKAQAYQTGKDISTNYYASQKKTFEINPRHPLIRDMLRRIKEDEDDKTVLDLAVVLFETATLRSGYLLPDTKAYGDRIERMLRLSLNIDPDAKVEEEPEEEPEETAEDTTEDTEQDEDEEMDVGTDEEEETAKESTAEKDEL

[10] = molecular target: SW480 colon carcinoma cells lysate proteins (Homo sapiens, UniProt Q16555); settings: PreyGene DPYSL2
[11] = molecular target: SW480 colon carcinoma cells lysate proteins (Homo sapiens, UniProt P99999); settings: PreyGene CYCS
Chain of SW480 colon carcinoma cells lysate proteins (Homo sapiens, UniProt P99999) (P99999 whole entry): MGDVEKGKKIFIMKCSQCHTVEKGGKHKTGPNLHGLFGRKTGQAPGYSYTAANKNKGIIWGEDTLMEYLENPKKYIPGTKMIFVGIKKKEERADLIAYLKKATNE

## C[C@H](Oc1cc(-c2cnn(C3CCNCC3)c2)cnc1N)c1c(Cl)ccc(F)c1Cl [(5)-crizotinib]
[1]
  AvgP: 0.3362
  SC.Exp. 1-1: 0
  SC.Exp. 1-2: 1
  SC.Exp. 2-1: 2
  SC.Exp. 2-2: 2
  Sum (SC.Exp.): 5
[2]
  AvgP: 0.4587
  SC.Exp. 1-1: 4
  SC.Exp. 1-2: 5
  SC.Exp. 2-1: 2
  SC.Exp. 2-2: 1
  Sum (SC.Exp.): 12
[3]
  AvgP: 0
  SC.Exp. 1-1: 0
  SC.Exp. 1-2: 1
  SC.Exp. 2-1: 0
  SC.Exp. 2-2: 0
  SC.Exp. Sum: 1
[4]
  AvgP: 0.1791
  SC.Exp. 1-1: 0
  SC.Exp. 1-2: 2
  SC.Exp. 2-1: 0
  SC.Exp. 2-2: 0
  Sum (SC.Exp.): 2
[5]
  AvgP: 0.2561
  SC.Exp. 1-1: 2
  SC.Exp. 1-2: 1
  SC.Exp. 2-1: 0
  SC.Exp. 2-2: 2
  Sum (SC.Exp.): 5
[6]
  AvgP: 0
  SC.Exp. 1-1: 2
  SC.Exp. 1-2: 2
  SC.Exp. 2-1: 2
  SC.Exp. 2-2: 2
  SC.Exp. Sum: 8
[7]
  AvgP: 0
  SC.Exp. 1-1: 37
  SC.Exp. 1-2: 34
  SC.Exp. 2-1: 37
  SC.Exp. 2-2: 37
  SC.Exp. Sum: 145
[8]
  AvgP: 0
  SC.Exp. 1-1: 5
  SC.Exp. 1-2: 6
  SC.Exp. 2-1: 6
  SC.Exp. 2-2: 6
  SC.Exp. Sum: 23
[9]
  AvgP: 0.228
  SC.Exp. 1-1: 13
  SC.Exp. 1-2: 8
  SC.Exp. 2-1: 0
  SC.Exp. 2-2: 0
  Sum (SC.Exp.): 21
[10]
  AvgP: 0.3678
  SC.Exp. 1-1: 6
  SC.Exp. 1-2: 4
  SC.Exp. 2-1: 0
  SC.Exp. 2-2: 0
  Sum (SC.Exp.): 10
[11]
  AvgP: 0.391
  SC.Exp. 1-1: 2
  SC.Exp. 1-2: 3
  SC.Exp. 2-1: 0
  SC.Exp. 2-2: 0
  Sum (SC.Exp.): 5
